Experimental data as given in patent US20240246960A1 (adMare Therapeutics Society, priority 2021, published 2024).
Read-outs that look alike come from different tables or passages of the source.

Columns and labels:
DNA-PK = target: T1, DNA-PK (Homo sapiens, UniProt P78527); experiment: DNA-PK Assay for Biochemical Enzymatic Inhibition (ADP Glo Kinase assay)
T1 construct: purchased Invitrogen PR9107A
Protocol: A biochemical assay was performed to identify IC50 values against DNA-PK activity in a two-step reaction with a kinase reaction followed by ADP Glo™ Kinase assay Kit (Promega V9102).
Three-fold serial dilutions of compounds in DMSO were prepared in kinase assay buffer (50 mM HEPES pH 7.5, 20 mM MgCl2, 100 mM KCl, 50 μM DTT, 10 μg/ml calf thymus DNA, 0.01% Tween 20). Kinase assay buffer was used to prepare compound treatments to 0.02% DMSO (dimethyl sulphoxide) content. DMSO controls were prepared to produce a maximum and minimum luminescence signal for normalization. Substrate (Anaspec, AS-60210-5) and ATP (Promega V9102) and ATP mix was prepared by dilution in kinase assay buffer for 434.4 μM and 64.4 μM final assay concentrations, respectively. Compounds and control were added to 25 ng DNA-PK enzyme (Invitrogen, PR9107A) diluted in kinase buffer in assay plate (Corning 267459) and incubated for 15 minutes at room temperature prior to addition of substrate and ATP mix.
Throughout the assay, each time a reagent was added to the microplate, it was centrifuged for 1 minute at 1300 rcf. All reagents were added, and incubations carried out at room temperature. The reaction was then incubated for 60 minutes. ADP-ATP standards at 0, 4, 10, 40, 80, and 100% ADP (prepared as specified in the ADP Glo™ Kinase assay kit) were also added to the microplate at a volume equal to the total kinase reaction. The ADP Glo™ Kinase Assay kit was then used to quantify DNA-PK activity: following the 60-minute incubation, a 1:1 volume of ADP Glo reagent was added to all wells, then following a further 45-minute incubation, a 1:1 volume of Kinase Detection Reagent was added to all wells. After this two-step assay, plates were incubated in a Synergy-Neo2 plate reader for 30 minutes with gentle shaking, followed by endpoint luminescent read Luminescence data was normalized by subtracting the background signal and expressing all background-adjusted values as a percentage of the average maximum signal. The data was then expressed as percent inhibition by subtracting from 100% (i.e. maximum luminescent signal will be 0% inhibition) and the resulting data plotted against ten concentration points on a logarithmic scale, using GraphPad Prism. Non-linear regression analysis was performed on each concentration response curve and the log [inhibitor] vs response—variable slope (four parameters) equation was selected to generate IC50 values.

[1] = target: T2, DNA-PK phosphorylation at Serine 2056 (Homo sapiens, UniProt P78527); experiment: Cellular Assay for Inhibition of DNA-PK Phosphorylation at Serine 2056 (FaDu cells, neocarzinostatin, sandwich ELISA); type: cell-based
T2 construct: host or cells: FaDu
How it was run: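 FaDu cells were pretreated with compound (0.3% DMSO) for 1 h, then exposed to neocarzinostatin at 1 μg/mL final for 2 h to induce DSBs. Protein-normalized lysates were assayed by MSD sandwich ELISA for total and pSer2056 DNA-PK. IC50 came from variable-slope fits of % inhibition relative to DMSO and NCS controls.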

[2] = target: T3, pDNA-PK ser2056 induction in HCT116 spheroids (Homo sapiens, UniProt P78527); experiment: Multicellular tumour spheroid + radiation, pDNA-PK inhibition, HCT116; type: cell-based; details: 20 Gy
T3 construct: endogenous in cells; host or cells: HCT116 multicellular tumour spheroids
Protocol: Multicellular tumour spheroids determination of compound inhibition of pDNA-PK induction following radiation. Tumour spheroids were grown to approximately 0.5 mm in diameter and irradiated with 20 Gy in combination with inhibitor test compounds to determine their potency. Inhibitor concentration for 50% reduction in pDNA-PK induction (IC50) was determined via immunohistochemical staining in spheroid cryosections taken 2 hours following radiation.
Spheroid, Cell Line: […], Immunohistochemical endpoint, pDNA-PK inhibition, EC50 in μm.
(§1) Spheroid+radiation pDNA-PK. Radiation: 20 Gy. Drug: serial dilution 5 or 10 μM down to 3.5 nM (11 wells). Spheroids: 3-6 spheroids per well (300-500 μm diameter). 20% O2 and 5% CO2. 96 well plate format.
Protocol: pre-incubate 1 hours with drug, irradiate with 20 Gy, post-incubate 2 hours with drug, freeze and cryosection ×3 replicates.
Endpoint: fluorescent immunostin pDNA-PK ser2056 and image on microscope.
Analysis: determine EC50 concentration that decreases pDNA-PK induction by 50% after radiation.
Multicellular tumour spheroids determination of compound inhibition of pDNA-PK induction following radiation. Tumour spheroids were grown to approximately 0.5 mm in diameter and irradiated with 20 Gy in combination with inhibitor test compounds to determine their potency. Inhibitor concentration for 50% reduction in pDNA-PK induction (IC50) was determined via immunohistochemical staining in spheroid cryosections taken 2 hours following radiation. For cell survival endpoint 8 Gy radiation was used and 3 hours following radiation spheroids were dissociated, counted and plated for colony forming endpoint.
as §1, with “format. Endpoint: fluorescent immunostain pDNA-PK ser2056 and image on microscope. Analysis: determine EC50 concentrations that decreases pDNA-PK induction […] after irradiation.” for “format.”
Multicellular tumour spheroids were used to determine potency of test compounds in a 3D tissue environment using inhibition of pDNA-PK induction following radiation or cell survival as the endpoint. For the pDNA-PK endpoint HCT116 or FaDU tumour spheroids were grown to approximately 0.5 mm in diameter and irradiated with 20 Gy in combination with inhibitor test compounds to determine their potency. Experiments were carried out in 96 well plates containing 0.7 mls of MEM media containing 10% FBS and 10 mM glucose under 20% O2 & 5% CO2 at 37° C. Following dilution of compounds 1:1000 from DMSO stocks, compounds were serially diluted from 10 μM down to 3.5 nM and 5-10 spheroids added. 96 well plates were constantly stirred to avoid spheroids settling during the course of the experiment. The inhibitor concentration for 50% reduction in pDNA-PK induction (EC50) was determined via immunohistochemical staining in spheroid cryosections taken 2 hours following radiation using anti-pDNA-PK (ser 2056) and fixed immediately in formalin following sectioning. For cell survival endpoint 8 Gy radiation was used and, 3 hours following radiation, spheroids were dissociated, counted and plated for colony forming endpoint. Data presented in the table compound potency as EC50 [μM].

[3] = Example 7, spheroid, cell line HCT115 [sic], 20% O2, read-out: EC50 (pDNA-PK inhibition, immunohistochemical endpoint)
[4] = Example 8, spheroid, read-out: Cell line: HCT116 Immunohistochemical endpoint pDNA-PK inhibition EC50
[5] = Example 9 Study 2, 20% O2, read-out: Spheroid Cell line: HCT116 Immunohistochemical endpoint pDNA-PK inhibition EC50

| IC50 (DNA-PK; Table 1) [nM] | IC50 ([1]; Table 1) [nM] | EC50 [2, 3] [nM] | EC50 [2, 4] [nM] | EC50 [2, 5] [nM] | IC50 (DNA-PK; Table 2) [nM] | IC50 ([1]; Table 2) [nM] | Structure (SMILES) |
| --- | --- | --- | --- | --- | --- | --- | --- |
| 1 to 10 | 100 to 1000 | 1000 to 10000 | 1000 to 10000 |  |  |  | Cc1cn([C@H]2CC[C@@H](Oc3nc(N4CCOCC4)cc4ncccc34)CC2)nc1C(F)(F)F [Compound 17e, 4-(5-(((1s,4s)-4-(4-methyl-3-(trifluoromethyl)-1H-pyrazol-1-yl)cyclohexyl)oxy)-1,6-naphthyridin-7-yl)morpholine] |
| 1 to 10 | 10000 to 30000 | 10000 to 100000 | 10000 to 100000 |  |  |  | Cc1cnn([C@H]2CC[C@@H](Oc3nc(N4CCOCC4)cc4ncccc34)CC2)c1C(F)(F)F [Compound 17f, 4-(5-(((1s,4s)-4-(4-methyl-5-(trifluoromethyl)-1H-pyrazol-1-yl)cyclohexyl)oxy)-1,6-naphthyridin-7-yl)morpholine] |
| 1 to 10 | 1000 to 10000 | 10000 to 100000 | 10000 to 100000 | 10000 to 100000 |  |  | Cc1c(C(F)(F)F)cnn1[C@H]1CC[C@@H](Oc2nc(N3CCOCC3)cc3ncccc23)CC1 [Compound 17h, 4-(5-(((1s,4s)-4-(5-methyl-4-(trifluoromethyl)-1H-pyrazol-1-yl)cyclohexyl)oxy)-1,6-naphthyridin-7-yl)morpholine] |
| 1 to 10 | 10000 to 30000 | 1000 to 10000 | 1000 to 10000 | 1000 to 10000 |  |  | CCOCCOc1cnc(N[C@H]2CC[C@@H](Oc3nc(N4CCOCC4)cc4ncc(Br)cc34)CC2)nc1 [Compound 18b, N-((1s,4s)-4-((3-Bromo-7-morpholino-1,6-naphthyridin-5-yl)oxy)cyclohexyl)-5-(2-ethoxyethoxy)pyrimidin-2-amine] |
| 1 to 10 | 100 to 1000 | 10000 to 100000 |  | 10000 to 100000 |  |  | Cn1ccc(N[C@H]2CC[C@@H](Oc3nc(N4CCOCC4)cc4ncccc34)CC2)n1 [Compound 30, 1-methyl-N-((1s,4s)-4-((7-morpholino-1,6-naphthyridin-5-yl)oxy)cyclohexyl)-1H-pyrazol-3-amine] |
| 1 to 10 | < 100 | 1000 to 10000 |  | 1000 to 10000 |  |  | CC(C)c1cnc(N[C@H]2CC[C@@H](Oc3nc(N4CCOCC4)cc4ncccc34)CC2)nc1 [Compound 33, 5-isopropyl-N-((1s,4s)-4-((7-morpholino-1,6-naphthyridin-5-yl)oxy)cyclohexyl)pyrimidin-2-amine] |
| 0.5 to 1 | 100 to 1000 | 1000 to 10000 |  | 1000 to 10000 |  |  | Cc1nccnc1N[C@H]1CC[C@@H](Oc2nc(N3CCOCC3)cc3ncccc23)CC1 [Compound 36, 3-methyl-N-((1s,4s)-4-((7-morpholino-1,6-naphthyridin-5-yl)oxy)cyclohexyl)pyrazin-2-amine] |
| < 0.5 | 100 to 1000 | 1000 to 10000 |  | 1000 to 10000 |  |  | COc1nccnc1N[C@H]1CC[C@@H](Oc2nc(N3CCOCC3)cc3ncccc23)CC1 [Compound 39, 3-methoxy-N-((1s,4s)-4-((7-morpholino-1,6-naphthyridin-5-yl)oxy)cyclohexyl)pyrazin-2-amine] |
| < 0.5 | 100 to 1000 | 1000 to 10000 |  | 1000 to 10000 |  |  | Fc1cnc(N[C@H]2CC[C@@H](Oc3nc(N4CCOCC4)cc4ncccc34)CC2)nc1 [Compound 40, 5-fluoro-N-((1s,4s)-4-((7-morpholino-1,6-naphthyridin-5-yl)oxy)cyclohexyl)pyrimidin-2-amine] |
| 0.5 to 1 | 100 to 1000 | 1000 to 10000 |  | 1000 to 10000 |  |  | Clc1cnc(N[C@H]2CC[C@@H](Oc3nc(N4CCOCC4)cc4ncccc34)CC2)nc1 [Compound 41, 5-chloro-N-((1s,4s)-4-((7-morpholino-1,6-naphthyridin-5-yl)oxy)cyclohexyl)pyrimidin-2-amine] |
| 0.5 to 1 | 100 to 1000 | 1000 to 10000 |  | 1000 to 10000 |  |  | Ic1cnc(N[C@H]2CC[C@@H](Oc3nc(N4CCOCC4)cc4ncccc34)CC2)nc1 [Compound 42, 5-iodo-N-((1s,4s)-4-((7-morpholino-1,6-naphthyridin-5-yl)oxy)cyclohexyl)pyrimidin-2-amine] |
| 1 to 10 | < 100 | 1000 to 10000 |  | 1000 to 10000 |  |  | FC(F)(F)c1ccnc(N[C@H]2CC[C@@H](Oc3nc(N4CCOCC4)cc4ncccc34)CC2)n1 [Compound 47, N-((1s,4s)-4-((7-morpholino-1,6-naphthyridin-5-yl)oxy)cyclohexyl)-4-(trifluoromethyl)pyrimidin-2-amine] |
| 0.5 to 1 | 100 to 1000 | 1000 to 10000 |  | 1000 to 10000 |  |  | CN(C)c1ccnc(N[C@H]2CC[C@@H](Oc3nc(N4CCOCC4)cc4ncccc34)CC2)n1 [Compound 50, N4,N4-dimethyl-N2-((1s,4s)-4-((7-morpholino-1,6-naphthyridin-5-yl)oxy)cyclohexyl)pyrimidine-2,4-diamine] |
|  |  |  |  |  | < 0.5 | 100 to 1000 | CNC(=O)c1cnc(N[C@H]2CC[C@@H](Oc3nc(N4CCOCC4)cc4ncc(NS(C)(=O)=O)cc34)CC2)nc1 [LFA029, 2-[[4-[[3-(Methanesulfonamido)-7-morpholino-1,6-naphthyridin-5-yl]oxy]cyclohexyl]amino]-N-methyl-pyrimidine-5-carboxamide] |
|  |  |  |  |  | < 0.5 | 100 to 1000 | CN(C)C(=O)c1cnc(N[C@H]2CC[C@@H](Oc3nc(N4CCOCC4)cc4ncc(NS(C)(=O)=O)cc34)CC2)nc1 [LFA030, 2-[[4-[[3-(Methanesulfonamido)-7-morpholino-1,6-naphthyridin-5-yl]oxy]cyclohexyl]amino]-N,N-dimethyl-pyrimidine-5-carboxamide] |
|  |  |  |  |  | < 0.5 | < 100 | Nc1cnc2cc(N3CCOCC3)nc(O[C@H]3CC[C@@H](Nc4ncccn4)CC3)c2c1 [LFA107, 7-morpholino-5-[4-(pyrimidin-2-ylamino)cyclohexoxy]-1,6-naphthyridin-3-amine] |
